Among the data in BindingDB's records for doi:10.1021/jm0701019 (Abbott Laboratories, 2007) are IC50 values, retold here.

The structures appear in SMILES notation.

In experiment [1] the target is cAMP-dependent protein kinase catalytic subunit alpha (Bos taurus, UniProt P00517). As to the kind of experiment: PKA/PKC Kinase Assay. As to the method: The kinase assay uses purified recombinant enzyme and a biotinylated peptide as substrate. The biotinylated peptides were immobilized on streptavidin-coated FLASH plates. After reaction, the 33P-phosphopeptide captured on the FLASH plates was measured with a TopCount Packard Instruments gamma counter (Packard Instruments, Boston, MA). IC50s were calculated using the sigmoidal curve fit with the Assay Explorer software (MDL, Los Angeles, CA).

For experiment [2], the target named is T1, RAC-alpha serine/threonine-protein kinase [139-480,S378A,S381A,T450D,S473D] (Homo sapiens, UniProt P31749, S378A/S381A/S473D/T450D).
T1 construct: 139-480
As to the kind of experiment: Akt Kinase Assay. As to the method: The kinase assay uses His-Akt1 and a biotinylated peptide as substrate. The biotinylated peptides were immobilized on streptavidin-coated FLASH plates. After reaction, the 33P-phosphopeptide captured on the FLASH plates was measured with a TopCount Packard Instruments […] (Packard Instruments, Boston, MA).

T1 sequence (P31749 139-480 S378A/S381A/T450D/S473D): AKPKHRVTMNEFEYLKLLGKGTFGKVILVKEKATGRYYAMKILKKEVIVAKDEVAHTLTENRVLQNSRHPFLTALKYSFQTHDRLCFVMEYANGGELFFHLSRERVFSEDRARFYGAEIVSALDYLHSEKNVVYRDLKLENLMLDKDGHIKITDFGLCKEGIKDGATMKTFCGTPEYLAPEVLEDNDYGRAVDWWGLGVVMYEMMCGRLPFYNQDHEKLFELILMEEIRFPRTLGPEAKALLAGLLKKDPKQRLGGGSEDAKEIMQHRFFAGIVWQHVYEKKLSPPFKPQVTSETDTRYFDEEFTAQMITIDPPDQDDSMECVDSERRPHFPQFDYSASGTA

`Cc1n[nH]c2ccc(-c3cncc(OC[C@@H](N)Cc4ccccc4)c3)cc12` [Biochemistry 469551 Compound 11] yielded an IC50 in experiment [1] (pH 7.5, 22 °C) of 16 nM.

As to `Cc1n[nH]c2ccc(-c3cncc(OC[C@@H](N)Cc4ccc(Br)cc4)c3)cc12` [5-{5-[(2S)-2-amino-3-(4-bromophenyl)propoxy]pyridin-3-yl}-3-methyl-1H-indazole], the IC50 was 15 nM in experiment [1] and 5 nM in experiment [2].

In experiment [1], `Cc1n[nH]c2ccc(-c3cncc(OC[C@@H](N)Cc4cccc(OCC5CCCCC5)c4)c3)cc12` [5-{5-[(2S)-2-amino-3-[3-(cyclohexylmethoxy)phenyl]propoxy]pyridin-3-yl}-3-methyl-1H-indazole] returned a concentration for half-maximal inhibition (IC50) greater than 3000 nM.

For `Cc1n[nH]c2ccc(-c3cncc(OC[C@@H](N)Cc4c[nH]c5ccccc45)c3)cc12` [5-{5-[(2S)-2-amino-3-(1H-indol-3-yl)propoxy]pyridin-3-yl}-3-methyl-1H-indazole], the half-inhibitory concentration (IC50) in experiment [1] (pH 7.5, 22 °C) came out at 6 nM; in experiment [2] (pH 7.5, 22 °C), 0.16 nM.

Take `Cc1n[nH]c2ccc(-c3cncc(OC[C@@H](N)Cc4cccc(Cl)c4Cl)c3)cc12` [5-{5-[(2S)-2-amino-3-(2,3-dichlorophenyl)propoxy]pyridin-3-yl}-3-methyl-1H-indazole]: the midpoint of inhibition in experiment [2], the IC50, lay at 5.6 nM.

As for `Cc1n[nH]c2ccc(-c3cncc(OC[C@@H](N)Cc4ccc5c(c4)OCO5)c3)cc12` [5-{5-[(2S)-2-amino-3-(2H-1,3-benzodioxol-5-yl)propoxy]pyridin-3-yl}-3-methyl-1H-indazole], it took 42 nM to reach half-maximal inhibition in experiment [2] (IC50).

Consider `Cc1n[nH]c2ccc(-c3cncc(OC[C@@H](N)Cc4ccc(F)c(C(F)(F)F)c4)c3)cc12` [5-{5-[(2S)-2-amino-3-[4-fluoro-3-(trifluoromethyl)phenyl]propoxy]pyridin-3-yl}-3-methyl-1H-indazole], for which inhibition in experiment [2] was half-maximal at 1.8 nM (IC50).

`Cc1n[nH]c2ccc(-c3cncc(OC[C@@H](N)Cc4cccc(OCC5CCN(C)CC5)c4)c3)cc12` [5-{5-[(2S)-2-amino-3-{3-[(1-methylpiperidin-4-yl)methoxy]phenyl}propoxy]pyridin-3-yl}-3-methyl-1H-indazole] gave a half-maximal inhibitory concentration (IC50) in experiment [2] of 78 nM.

`Cc1cc(C)c(C[C@H](N)COc2cncc(-c3ccc4[nH]nc(C)c4c3)c2)c(C)c1` [(2S)-1-(2,4,6-trimethylphenyl)-3-{[5-(3-methyl-1H-indazol-5-yl)pyridin-3-yl]oxy}propan-2-amine] came in with a half-inhibitory concentration (IC50) in experiment [2] of 39 nM.

With `Cc1n[nH]c2ccc(-c3cncc(OC[C@@H](N)Cc4cccc(OCC5CCNCC5)c4)c3)cc12` [5-{5-[(2S)-2-amino-3-[3-(piperidin-4-ylmethoxy)phenyl]propoxy]pyridin-3-yl}-3-methyl-1H-indazole], the IC50 in experiment [2] amounted to 6.8 nM.

`Cc1n[nH]c2cnc(-c3cncc(OC[C@@H](N)Cc4cccc(F)c4F)c3)cc12` [(2S)-1-(2,3-difluorophenyl)-3-{[5-(3-methyl-1H-pyrazolo[3,4-c]pyridin-5-yl)pyridin-3-yl]oxy}propan-2-amine]: the IC50 in experiment [2] stood at 5 nM.

The compound `Cc1n[nH]c2ccc(-c3cncc(OC[C@@H](N)Cc4c(F)cc(F)cc4Br)c3)cc12` [(2S)-1-(2-bromo-4,6-difluorophenyl)-3-{[5-(3-methyl-1H-indazol-5-yl)pyridin-3-yl]oxy}propan-2-amine] yielded a 50% inhibitory concentration (IC50) in experiment [2] of 49 nM.

The compound `N[C@H](COc1cncc(-c2ccc3c(c2)/C(=C/c2ccc[nH]2)C(=O)N3)c1)Cc1ccccc1` [(3Z)-5-{5-[(2S)-2-amino-3-phenylpropoxy]pyridin-3-yl}-3-(1H-pyrrol-2-ylmethylidene)-2,3-dihydro-1H-indol-2-one] showed an IC50 in experiment [2] (pH 7.5, 22 °C) of 16 nM.

The compound `Cc1ccc(F)cc1C[C@H](N)COc1cncc(-c2ccc3[nH]nc(C)c3c2)c1` [5-{5-[(2S)-2-amino-3-(5-fluoro-2-methylphenyl)propoxy]pyridin-3-yl}-3-methyl-1H-indazole] had an IC50 in experiment [2] of 3.9 nM.

Consider `Cc1n[nH]c2ccc(-c3cncc(OC[C@@H](N)Cc4cccc(C(F)(F)F)c4)c3)cc12` [(2S)-1-{[5-(3-methyl-1H-indazol-5-yl)pyridin-3-yl]oxy}-3-[3-(trifluoromethyl)phenyl]propan-2-amine], for which, in experiment [2], the 50% inhibitory concentration (IC50) was determined as 1.2 nM.

In the case of `Cc1n[nH]c2ccc(-c3cncc(OC[C@@H](N)Cc4cccc(OCCC5CCNCC5)c4)c3)cc12` [5-{5-[(2S)-2-amino-3-{3-[2-(piperidin-4-yl)ethoxy]phenyl}propoxy]pyridin-3-yl}-3-methyl-1H-indazole], 290 nM corresponded to half-maximal inhibition in experiment [2] (IC50).

`Cc1n[nH]c2ccc(-c3cncc(OC[C@@H](N)Cc4cccc(F)c4F)c3)cc12` [5-{5-[(2S)-2-amino-3-(2,3-difluorophenyl)propoxy]pyridin-3-yl}-3-methyl-1H-indazole] came in with an IC50 in experiment [2] (pH 7.5, 22 °C) of 8.5 nM.

Compound `Cc1n[nH]c2ccc(-c3cncc(OC[C@@H](N)Cc4ccccc4Cl)c3)cc12` [5-{5-[(2S)-2-amino-3-(2-chlorophenyl)propoxy]pyridin-3-yl}-3-methyl-1H-indazole] returned an IC50 in experiment [2] of 29 nM.

In experiment [2], `Cc1n[nH]c2ccc(-c3cncc(OC[C@@H](N)Cc4ccccc4OC(F)(F)F)c3)cc12` [5-{5-[(2S)-2-amino-3-[2-(trifluoromethoxy)phenyl]propoxy]pyridin-3-yl}-3-methyl-1H-indazole] had an IC50 of 15.3 nM.

With `Cc1n[nH]c2ccc(-c3cncc(OC[C@@H](N)Cc4ccc(C(F)(F)F)c(F)c4)c3)cc12` [5-{5-[(2S)-2-amino-3-[3-fluoro-4-(trifluoromethyl)phenyl]propoxy]pyridin-3-yl}-3-methyl-1H-indazole], inhibition in experiment [2] was half-maximal at 3.1 nM (IC50).
